# Results taken from patent US20060105361A1, “Donor yeast strain for transfer of genetic material” (priority 2004, published 2006).
# Tested on: wild-type strains
# Test: Spot tests of yeast strains on SD-leu plates containing camptothecin and CuSO4
# Assay type: cell-based, Saccharomyces cerevisiae
# Method: The mutant and wild-type TOP1 were cloned under the control of the copper-inducible CUP1 promoter. These plasmids were transformed into the MATa universal donor strain (J1361), the MATalpha deletion library wild-type strain (BY4742) and rad9 and rad50 deletion strains from the library. Transformation reactions were plated on SD-leu media and incubated for 3 days at 30° C. to allow colony growth. […] B. Transformants from A were grown overnight in liquid SD-leu media, equalized by OD, serially diluted and spotted onto SD-leu plates containing the indicated concentrations of CuSO4. Each panel is a group of three strains containing the vector, TOP1 or TOP1-T722A plasmids as indicated on the right. […] Spot tests shown at the bottom contain 5 μg/ml camptothecin.
structure (smiles),measurement,setting,value
CC[C@@]1(O)C(=O)OCc2c1cc1n(c2=O)Cc2cc3ccccc3nc2-1 [camptothecin],sensitivity (viability in spot test) of strains containing the TOP1-T722A plasmid,"5 μg/ml camptothecin, wild-type cells with CUP1-promoter TOP1-T722A plasmid, graded CuSO4",roughly additive effect of the TOP1-T722A mutant in conjunction with camptothecin
same,sensitivity (viability in spot test) of strains containing the TOP1 plasmid,"5 μg/ml camptothecin, wild-type strain (BY4742) with CUP1-promoter TOP1 plasmid, graded CuSO4",only sensitive to the drug when Top1 is overexpressed by 100 μM copper
same,viability of the library strain on plates containing camptothecin,"library strain is TOP1, relatively low doses of drug, no TOP1 overexpression",do not affect viability
